Laboratory results: article PMC13308190, “Endothelial progenitor cell susceptibility to DNA damaging and DDR-modulating compounds determines endothelial differentiation accuracy” (Stem Cell Research & Therapy, 2026)

Key:
EC d6 [1] = assay: Alkaline comet assay; conditions: EC d6 24 h
EC d6 [2] = assay: EdU incorporation (S-phase activity); assay type: cell-based, mouse; conditions: EC d6 24 h; Dox up to 0.1 µM

SMILES: COc1cccc2c1C(=O)c1c(O)c3c(c(O)c1C2=O)C[C@@](O)(C(=O)CO)C[C@@H]3O[C@H]1C[C@H](N)[C@H](O)[C@H](C)O1 [Dox, doxorubicin]
- steady-state level of SSB (alkaline comet assay) (EC d6 [1]): no or only a minor increase
- number of EdU-positive cells (EC d6 [2]): remained unaffected
